Broadly, the inhibition is the percentage by which the read-out fell short of the control.

For two compounds, Activity and inhibition results are on record in ChEMBL document CHEMBL5715954, “Silencing c-Myc translation as a therapeutic strategy through targeting PI3Kδ and CK1ε in hematological malignancies” (Blood, 2017).

The subject of one series is CLL cell. Put plainly: Induction of apoptosis in human CLL cells assessed as increase in cleaved-PARP expression at 5 uM measured after 24 hrs in presence of bortezomib by Western blot analysis. It is filed as functional, cell-based. Background: In western blotting, separated proteins are transferred to a membrane and probed.
For series [1], the target named is T1, mTORC1 (Homo sapiens) (UniProt P42345+Q8N122+Q9BVC4). Briefly: Inhibition of mTORC1 in human PF-382 cells assessed as reduction in c-Myc expression at 5 uM measured after 24 hrs in presence of bortezomib by Western blot analysis. The series is classed as cell-based.
T1 sequence (Q8N122 whole entry, looked up, other chains not shown): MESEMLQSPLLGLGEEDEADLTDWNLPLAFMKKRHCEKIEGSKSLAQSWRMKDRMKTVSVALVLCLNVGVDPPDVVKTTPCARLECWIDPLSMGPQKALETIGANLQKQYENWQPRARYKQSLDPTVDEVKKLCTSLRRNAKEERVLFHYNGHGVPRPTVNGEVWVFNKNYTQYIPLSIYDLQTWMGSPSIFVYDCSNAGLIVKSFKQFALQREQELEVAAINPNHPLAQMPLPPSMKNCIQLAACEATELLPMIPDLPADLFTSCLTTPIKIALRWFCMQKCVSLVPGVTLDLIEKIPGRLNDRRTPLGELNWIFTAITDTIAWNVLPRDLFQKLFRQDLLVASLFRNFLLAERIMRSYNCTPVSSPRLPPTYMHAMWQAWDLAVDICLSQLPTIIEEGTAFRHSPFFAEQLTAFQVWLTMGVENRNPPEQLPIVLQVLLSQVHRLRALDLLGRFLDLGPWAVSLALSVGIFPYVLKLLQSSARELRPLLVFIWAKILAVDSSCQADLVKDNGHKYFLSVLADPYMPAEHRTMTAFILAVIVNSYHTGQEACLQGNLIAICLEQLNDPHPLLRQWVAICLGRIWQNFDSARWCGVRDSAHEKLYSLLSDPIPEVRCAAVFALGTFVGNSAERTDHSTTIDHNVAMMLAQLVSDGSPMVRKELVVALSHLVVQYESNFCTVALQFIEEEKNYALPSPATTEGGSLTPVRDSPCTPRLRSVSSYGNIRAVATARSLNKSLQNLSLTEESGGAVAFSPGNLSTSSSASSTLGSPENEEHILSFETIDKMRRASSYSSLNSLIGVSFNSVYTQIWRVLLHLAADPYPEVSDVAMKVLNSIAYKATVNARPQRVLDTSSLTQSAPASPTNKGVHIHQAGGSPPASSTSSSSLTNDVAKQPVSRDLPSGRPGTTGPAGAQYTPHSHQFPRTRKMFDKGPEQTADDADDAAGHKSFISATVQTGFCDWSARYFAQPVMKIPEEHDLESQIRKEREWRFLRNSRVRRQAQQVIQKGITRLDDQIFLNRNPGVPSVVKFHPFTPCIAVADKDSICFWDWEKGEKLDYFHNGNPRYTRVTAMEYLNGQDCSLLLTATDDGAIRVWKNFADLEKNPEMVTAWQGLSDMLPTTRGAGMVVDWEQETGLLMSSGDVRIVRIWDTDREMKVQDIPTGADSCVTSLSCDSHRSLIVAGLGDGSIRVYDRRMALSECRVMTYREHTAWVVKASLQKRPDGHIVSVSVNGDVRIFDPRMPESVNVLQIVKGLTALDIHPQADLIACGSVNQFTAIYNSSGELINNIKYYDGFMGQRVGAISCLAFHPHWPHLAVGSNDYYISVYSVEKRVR
T1 sequence (Q9BVC4 whole entry, looked up, other chains not shown): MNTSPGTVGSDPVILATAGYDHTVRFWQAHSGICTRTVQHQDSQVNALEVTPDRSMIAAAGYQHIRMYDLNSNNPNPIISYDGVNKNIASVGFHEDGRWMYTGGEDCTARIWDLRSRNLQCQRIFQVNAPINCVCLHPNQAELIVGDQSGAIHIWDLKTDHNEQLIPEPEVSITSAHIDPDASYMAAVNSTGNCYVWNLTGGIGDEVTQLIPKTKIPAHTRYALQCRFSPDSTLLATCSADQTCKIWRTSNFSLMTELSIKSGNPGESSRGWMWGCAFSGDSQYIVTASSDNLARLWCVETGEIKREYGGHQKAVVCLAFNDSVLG
For series [2], the target named is T1, mTORC1 (Homo sapiens). Briefly: Inhibition of mTORC1 in human LY10 cells assessed as reduction in 4E-BP1 phosphorylation at 3 uM measured after 24 hrs in presence of bortezomib by Western blot analysis. The series is classed as cell-based.
The target of series [3] is T1, mTORC1 (Homo sapiens). Briefly: Inhibition of mTORC1 in human CLL cells assessed as reduction in 4E-BP1 phosphorylation at 5 uM measured after 24 hrs in presence of bortezomib by Western blot analysis. It is filed as cell-based. The conditions noted are these: CLL cell.
For another series, the system named is MZL. Briefly: Induction of apoptosis in human MZL cells assessed as increase in cleaved-PARP expression at 5 uM measured after 24 hrs in presence of bortezomib by Western blot analysis. It is filed as functional, cell-based.
Series [4] addresses T1, mTORC1 (Homo sapiens). Briefly: Inhibition of mTORC1 in human PF-382 cells assessed as reduction in 4E-BP1 phosphorylation at 5 uM measured after 24 hrs in presence of bortezomib by Western blot analysis. The series is classed as cell-based.
In series [5] the target is Myc proto-oncogene protein (Homo sapiens) (UniProt P01106). Put plainly: Inhibition of c-Myc in human LY10 cells assessed as reduction in eIF4B expression at 3 uM incubated for 24 hrs in presence of bortezomib by Western blot analysis. The series is classed as cell-based.
Sequence of Myc proto-oncogene protein (Homo sapiens) (P01106 whole entry): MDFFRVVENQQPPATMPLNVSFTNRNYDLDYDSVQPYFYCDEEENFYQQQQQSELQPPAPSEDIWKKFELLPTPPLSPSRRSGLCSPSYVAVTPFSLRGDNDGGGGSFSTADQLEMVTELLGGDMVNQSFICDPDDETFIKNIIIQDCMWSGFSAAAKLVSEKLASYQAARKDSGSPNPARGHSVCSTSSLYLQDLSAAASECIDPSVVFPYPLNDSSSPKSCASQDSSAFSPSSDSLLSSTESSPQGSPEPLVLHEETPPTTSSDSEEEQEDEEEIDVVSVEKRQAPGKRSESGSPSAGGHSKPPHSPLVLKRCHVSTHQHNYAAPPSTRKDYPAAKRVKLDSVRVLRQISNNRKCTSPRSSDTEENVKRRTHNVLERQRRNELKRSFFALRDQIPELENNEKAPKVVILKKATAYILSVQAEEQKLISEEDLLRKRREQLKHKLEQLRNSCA
Series [6] deals with T1, mTORC1 (Homo sapiens). Briefly: Inhibition of mTORC1 in human CLL cells assessed as reduction in c-Myc expression at 5 uM measured after 24 hrs in presence of bortezomib by Western blot analysis. It is filed as cell-based. The following applies: CLL cell.
Series [7] concerns the target Myc proto-oncogene protein (Homo sapiens) (UniProt P01106). Put plainly: Inhibition of c-Myc in human LY7 cells assessed as reduction in E2F1 expression at 3 uM incubated for 24 hrs in presence of bortezomib by Western blot analysis. The series is classed as cell-based.
The next series deals with OCI-Ly10. Briefly: Induction of apoptosis in human LY10 cells assessed as increase in caspase-3/7 activation at 1 to 3 uM measured after 24 hrs in presence of bortezomib. It is filed as functional, cell-based. The following applies: dose 1-3 µM.
Series [8] concerns the target T1, mTORC1 (Homo sapiens). Put plainly: Inhibition of mTORC1 in human SLL cells assessed as reduction in 4E-BP1 phosphorylation at 5 uM measured after 24 hrs in presence of bortezomib by Western blot analysis. The series is classed as cell-based.
Series [9] concerns the target T1, mTORC1 (Homo sapiens). Briefly: Inhibition of mTORC1 in human NCI-H929 cells transduced with an eIF4E-overexpressing plasmid assessed as reduction in c-Myc expression at 5 uM incubated for 24 hrs in presence of carfilzomib by Western blot analysis. It is filed as cell-based.
For the next series, the system named is OCILY7. Put plainly: Inhibition of PI3Kdelta/CK1epsilon in human OCILY7 cells transfected with c-Myc-expressing plasmid (M+) assessed as reduction in c-Myc expression at 7.5 to 25 uM measured after 24 hrs by Western blot analysis. It is filed as cell-based. The conditions noted are these: dose 7.5-25 µM.
In series [10] the target is T1, mTORC1 (Homo sapiens). Briefly: Inhibition of mTORC1 in human CLL cells assessed as reduction in c-Myc expression at 5 uM measured after 24 hrs in presence of carfilzomib by Western blot analysis. The series is classed as cell-based. The following applies: CLL cell.
The target of series [11] is T2, Phosphatidylinositol 4,5-bisphosphate 3-kinase catalytic subunit delta isoform (Homo sapiens) (UniProt O00329).
T2 sequence (whole entry): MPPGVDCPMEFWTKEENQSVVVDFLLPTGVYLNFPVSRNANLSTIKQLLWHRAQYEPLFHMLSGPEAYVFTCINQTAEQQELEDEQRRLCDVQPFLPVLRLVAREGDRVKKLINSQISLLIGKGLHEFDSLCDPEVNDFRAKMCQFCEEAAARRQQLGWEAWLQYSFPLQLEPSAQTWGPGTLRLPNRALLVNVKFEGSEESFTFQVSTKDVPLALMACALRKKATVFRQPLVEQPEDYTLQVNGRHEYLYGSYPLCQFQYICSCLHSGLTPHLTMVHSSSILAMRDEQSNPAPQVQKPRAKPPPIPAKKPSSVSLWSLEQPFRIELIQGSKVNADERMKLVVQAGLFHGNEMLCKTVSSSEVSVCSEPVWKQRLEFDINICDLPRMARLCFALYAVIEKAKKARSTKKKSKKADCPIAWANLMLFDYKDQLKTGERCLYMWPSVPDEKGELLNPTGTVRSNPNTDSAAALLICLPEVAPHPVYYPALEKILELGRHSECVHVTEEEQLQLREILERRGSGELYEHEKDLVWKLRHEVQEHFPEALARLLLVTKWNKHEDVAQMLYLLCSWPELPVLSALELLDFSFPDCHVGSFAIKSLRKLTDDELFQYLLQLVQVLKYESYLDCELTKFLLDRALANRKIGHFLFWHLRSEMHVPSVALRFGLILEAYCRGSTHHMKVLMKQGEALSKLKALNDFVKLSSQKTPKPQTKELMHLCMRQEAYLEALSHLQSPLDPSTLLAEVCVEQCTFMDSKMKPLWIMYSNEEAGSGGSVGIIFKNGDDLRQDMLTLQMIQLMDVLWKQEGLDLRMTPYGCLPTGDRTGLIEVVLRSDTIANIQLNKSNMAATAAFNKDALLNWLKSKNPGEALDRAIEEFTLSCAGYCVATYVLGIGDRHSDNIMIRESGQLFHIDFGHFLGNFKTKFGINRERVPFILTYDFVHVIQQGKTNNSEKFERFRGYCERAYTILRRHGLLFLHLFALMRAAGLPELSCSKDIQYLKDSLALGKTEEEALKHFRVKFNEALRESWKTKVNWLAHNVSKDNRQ
Put plainly: Inhibition of PI3Kdelta in human HL-60 cells assessed as reduction in AKT phosphorylation at S473 residue at 1 uM measured after 4 hrs relative to control. It is filed as cell-based.

The nature of series [12]: Cytotoxicity against human PBMC assessed as reduction in cell viability at 2.5 to 5 uM measured after 24 to 72 hrs in presence of carfilzomib by cell-titer glo assay. The conditions noted are these: dose lower 2.5 µM, time lower 24 hrs, dose upper 5 µM, time upper 72 hrs. The series is classed as toxicity, cell-based.
The target in series [13] is T1, mTORC1 (Homo sapiens). Put plainly: Inhibition of mTORC1 in human NCI-H929 cells transduced with an eIF4E-overexpressing plasmid assessed as reduction in eIF4E expression at 5 uM incubated for 24 hrs in presence of carfilzomib by Western blot analysis. It is filed as cell-based.
Series [14] addresses Myc proto-oncogene protein (Homo sapiens) (UniProt P01106). Put plainly: Inhibition of c-Myc in human LY7 cells assessed as reduction in eIF4B expression at 3 uM incubated for 24 hrs in presence of carfilzomib by Western blot analysis. The series is classed as cell-based.
In series [15] the target is T1, mTORC1 (Homo sapiens). Briefly: Inhibition of mTORC1 in human NCI-H929 cells assessed as reduction in 4E-BP1 phosphorylation at 5 uM measured after 24 hrs by Western blot analysis. It is filed as cell-based.
Series [16] has as its target T2, Phosphatidylinositol 4,5-bisphosphate 3-kinase catalytic subunit delta isoform (Homo sapiens). Put plainly: Inhibition of PI3Kdelta in human DB cells assessed as reduction in AKT phosphorylation at S473 residue at 1 uM measured after 4 hrs relative to control. The series is classed as cell-based.
The next series deals with MOLT-4. Briefly: Antitumor activity against human MOLT-4 cells xenografted in NOD/SCID mouse assessed as reduction in tumor volume at 150 mg/kg, po administered daily for 25 days measured at 2 to 3 times per week during compound dosing by caliper method. It is filed as functional, organism-based. The conditions noted are these: time 25.0 day. (A xenograft is tissue or cells of one species grown in another, often human tumour cells in immunodeficient mice.)

The source made the active and inactive calls. The calls are words filed in the database; no cut-off is given here.

Turning to `CC[C@H](Nc1ncnc2[nH]cnc12)c1nc2cccc(F)c2c(=O)n1-c1ccccc1`, the outcome with CLL cell, in the series on MZL and in the series on OCI-Ly10 was Active. Further, the inhibition entry (on mTORC1 (Homo sapiens) [1]; at mTORC1 (Homo sapiens) [2]; on mTORC1 (Homo sapiens) [3]; at mTORC1 (Homo sapiens) [4]; in series [5]; at mTORC1 (Homo sapiens) [6]) was “inactive” in each case. The inhibition result (in series [7]; at mTORC1 (Homo sapiens) [8]) was “inactive” in each case.

As to `CC(C)Oc1ccc(-c2nn([C@@H](C)c3oc4ccc(F)cc4c(=O)c3-c3cccc(F)c3)c3ncnc(N)c23)cc1F` [UMBRALISIB], the inhibition entry on mTORC1 (Homo sapiens) [9], in the series with OCILY7, at mTORC1 (Homo sapiens) [13] and on mTORC1 (Homo sapiens) [15] was “inactive” throughout. The inhibition result (at mTORC1 (Homo sapiens) [10]; in [14]) was “Active” in each case. Moreover, the inhibition in [11] and in series [16] was 43% in each case. The Activity result in series [12] is recorded as “Non-Toxic”. Further, the outcome in the series on MOLT-4 was Active.
